Laboratory results published in patent US6958345B2, “2-hydroxymethylcyclopropylidene methylpurines and -pyrimidines as antiviral agents” (The Regents of the University of Michigan, priority 1997, dated 2005).
Read-outs that look alike come from different tables or passages of the source.

How the values were obtained:
KB cells = experiment: Cytotoxicity in KB cells, growth over two population doublings; format: cell-based
Experimental: (§1) Cells and viruses. The routine growth and passage of KB cells was performed in monolayer cultures using minimal essential medium (MEM) with either Hanks salts [MEM(H)] or Earle salts [MEM(E)] supplemented with 10% calf serum. The sodium bicarbonate concentration was varied to meet the buffering capacity required. Cultures of diploid human foreskin fibroblasts (HFF) or MRC-5 cells were grown in medium consisting of MEM(E) with 10% fetal bovine serum. Cells were passaged at 1:2 to 1:10 dilutions according to conventional procedures by using 0.05% trypsin plus 0.02% EDTA in a HEPES buffered salt solution (HBS) (Shipman, C., Jr., Proc. Soc. Exp. Biol. 130:305-310 (1969)) as described previously. Turk, S. R., et al., Antimicrob. Agents Chemother. 31:544-550 (1987). HFF and MRC-5 cells were passaged only at 1:2 dilutions. CEM cells were maintained in suspension culture as detailed previously. Kucera, L. S., et al., AIDS Res. Human Retroviruses 9:307-314 (1993).
(§2) Cytotoxicity assays. Two different assays were used to explore cytotoxicity of selected compounds as we have detailed previously. (i) Cytotoxicity produced in stationary HFF cells and in growing CEM cells was determined by microscopic inspection of cells used in plaque and RT assays which were not affected by the virus. Turk, S. R., et al., Antimicrob. Agents Chemother. 31:544-550 (1987). (ii) The effect of compounds during two population doublings of KB cells was determined by crystal violet staining and spectrophotometric quantitation of dye eluted from stained cells. Prichard, M. N., et al., Antimicrob. Agents Chemother. 35:1060-1065 (1991).
(§3) Data Analysis. Dose-response relationships were constructed by linearly regressing the percent inhibition of parameters derived in the preceding sections against log drug concentrations. Fifty-percent inhibitory (IC50) concentrations were calculated from the regression lines. Samples containing positive controls (acyclovir for HSV-1, ganciclovir for HCMV, and 2-acetylpyridine thiosemicarbazone for cytotoxicity) were used in all assays.

HSV-1 = HSV-1 ELISA in BSC-1 cells; format: cell-based, herpes simplex 1 (HSV-1); conditions: BSC-1 cells; ELISA
Experimental: (§4) Virological procedures. Stock HCMV was prepared by infecting HFF cells at a multiplicity of infection (m.o.i.) of <0.01 plaque-forming units (p.f.u.) per cell. Cell growth medium was changed every four days until cytopathology was evident in all cells (approximately 21 days). Supernatant fluids were retained as the virus stock. High titer HSV-1 stocks were prepared by infecting KB cells at an m.o.i. of <0.1 as detailed previously. Turk, S. R., et al., Antimicrob. Agents Chemother. 31:544-550 (1987). Virus titers were determined using monolayer cultures of HFF cells for HCMV and monolayer cultures of BSC-1 cells for HSV-1 as described earlier. Prichard, M. N., et al., J. Virol. Methods 28:101-106 (1990). Briefly, HFF or BSC-1 cells were planted as described above in 96-well cluster dishes and incubated overnight at 37° C. in a humidified 3% CO297% air atmosphere. The next day cultures were inoculated with HCMV or HSV-1 and serially diluted 1:3 across the remaining eleven columns of the 96-well plate. Cultures were incubated at 37° C. for 2 hr to permit virus adsorption and then virus inoculum was replaced with 0.2 mL of fresh medium. Cultures were incubated for seven days for HCMV, two or three days for HSV-1, medium was removed, and the cell sheets were stained with 0.1% crystal violet in 20% methanol. Plaques were enumerated under 20-fold magnification in wells having the dilution which gave 5 to 20 plaques per well. Virus titers were calculated according to the following Formula: Titer (p.f.u./mL)=number of plaques×5×3^n; where n represents the nth dilution of the virus used to infect the well in which plaques were enumerated.
(b) HSV-1. An enzyme-linked immunosorbent assay (ELISA) was employed to detect HSV-1. 96-well cluster dishes were planted with BSC-1 cells at 10,000 cells per well, in a total volume of 200 μL per well of MEM(E) plus 10% calf serum. After overnight incubation at 37° C., drug and HSV-1 was added at the rate of 100 PFU/well. ELISA plates were blocked with 200 μL per well of 10% calf serum and 0.05% tween in HBS. After incubation for 30 minutes, the blocking agent was rinsed two times with HBS-T. A 1:400 dilution of AP conjugated rabbit anti-HSV-1 antibody in HBS-F was added. Plates were sealed with adhesive sheet, and incubated on rocker for one hour at 37° C. Plates were developed in the dark with 100 μL per well of substrate solution containing p-nitrophenyl phosphate. Plates were read at […]. Drug effects were calculated as a percentage of the reduction in virus in the presence of each drug concentration compared to the titer obtained in the absence of drug. Acyclovir was used as a positive control in all experiments.
as §3

CEM cells = experiment: Cytotoxicity in growing CEM cells, microscopic inspection; format: cell-based
Experimental: as §1, §2, §3

HFF cells = experiment: Cytotoxicity in stationary HFF cells, microscopic inspection; format: cell-based, human
Experimental: as §1, §2, §3

HCMV [1] = experiment: HCMV plaque reduction assay in HFF cells; format: cell-based, Human CMV (HCMV); conditions: HFF cells; plaque reduction
Experimental: as §1, §4
(a) HCMV. The effect of compounds on the replication of HCMV has been measured using a plaque reduction assay. HFF cells in 24-well cluster dishes were infected with approximately 100 p.f.u. of HCMV per cm^2 cell sheet using the procedures detailed above. Following virus adsorption, compounds dissolved in growth medium were added to duplicate wells in three to six selected concentrations. Following incubation at 37° C. for 7 to 10 days, cell sheets were fixed, stained with crystal violet and microscopic plaques enumerated as described above. Drug effects were calculated as a percentage of reduction in number of plaques in the presence of each drug concentration compared to the number observed in the absence of drug. Ganciclovir (DHPG) was used as a positive control in all experiments.
as §3

HCMV [2] = experiment: HCMV yield reduction assay in HFF cells; format: cell-based, Human CMV (HCMV); conditions: footnote says IC90
Experimental: as §4
The effect of compounds on the replication of HCMV also was measured using a yield reduction assay. HFF cells were planted as described above in 96-well cluster dishes, incubated overnight, medium removed and the cultures were inoculated with HCMV at a m.o.i. of 0.5 to 1 p.f.u. per cell as reported elsewhere. After virus adsorption, inoculum was replaced with 0.2 mL of fresh medium containing test compounds. The first row of 12 wells was left undisturbed and served as virus controls. Each well in the second row received an additional 0.1 mL of medium with test compound at three times the desired final concentration. The contents of the 12 wells were mixed by repeated pipetting and then serially diluted 1:3 along the remaining wells. In this manner, six compounds could be tested in duplicate on a single plate with concentrations from 100 μM to 0.14 μM. Plates were incubated at 37° C. for seven days, subjected to one cycle of freezing and thawing; aliquots from each of the eight wells of a given column were transferred to the first column of a fresh 96-well monolayer culture of HFF cells. Contents were mixed and serially diluted 1:3 across the remaining eleven columns of the secondary plate. Each column of the original primary plate was diluted across a separate plate in this manner. Cultures were incubated, plaques were enumerated, and titers calculated as described above.
as §3

HIV-1 = HIV-1 reverse transcriptase assay in infected CEM cells; format: cell-based, strain IIIB of HIV-1; conditions: reverse transcriptase assay, CEM cells; low moi (footnote c of the 5th table); read-out: HIV-1, IC50
Experimental: (d) HIV-1. Reverse transcriptase (RT) was employed as a marker for HIV-1. This assay measured the presence of HIV in supernatants of CEM cells infected with strain IIIB of HIV-1 by the amount of RT activity. Cells were grown, infected, and incubated in the presence of seven concentrations (one-half log10 dilutions) beginning at 1 or 100 μM of compounds to be assayed. Procedures and the RT assay were performed as detailed previously. Kucera, L. S., et al., AIDS Res. Human Retroviruses 9:307-314 (1993); White, E. L., et al., Antiviral Res. 16:257-266 (1991).

[3] = Toxicity controls: uninfected mice given test compound; format: in vivo; conditions: 5.6, 16.7 and 50 mg/kg i.p. once daily for five days
Experimental: (§5) Compounds 1 (B=adenin-N^9-yl and guanin-N^9-yl) were evaluated in mice infected with murine cytomegalovirus (MCMV). Mice were infected intraperitonealy with sufficient MCMV to produce 90 to 100% mortality. Compounds were administered once daily for five days at doses of 5.6, 16.7 and 50 mg/kg by intraperitoneal injection in a 0.4% suspension of carboxymethylcellulose. Ganciclovir was administered in sterile water at the same doses as a positive control drug. All compounds were administered to separate groups of 15 mice each at 6, 24, and 48 hours after infection with MCMV. Groups of 10 uninfected mice also received test compounds as toxicity controls at the doses listed above.

[4] = tested on: murine cytomegalovirus (MCMV); experiment: Mortality of mice infected with murine cytomegalovirus; format: in vivo; conditions: 5.6 mg/kg
Experimental: as §5

| Compound | IC50 (KB cells) | IC50 (HSV-1) | IC50 (CEM cells) | IC50 (HFF cells) | IC50 (HCMV [1]) | IC90 (HCMV [2]) | IC50 (HIV-1) | deaths in uninfected mice that received only drug [3] | IC50 (KB cells; KB cell growth, read-out: Cytotoxicity IC50 KB (growth)) | IC50 (CEM cells; growing CEM cells, visual, read-out: Cytotoxicity IC50 CEM (visual)) | IC50 (HFF cells; stationary HFF cells, visual, read-out: Cytotoxicity IC50 HFF (visual)) | efficacy against MCMV mortality compared with compound 1 (B=guanin-N^9-yl) [4] |
| --- | --- | --- | --- | --- | --- | --- | --- | --- | --- | --- | --- | --- |
| Nc1nc(N)c2ncn(C=C3CC3CO)c2n1 (stereo not drawn) [1 (B = 2,6-diaminopurine), Example 9, syn-2,6-Diamino-N^9-(2-hydroxymethylcyclopropylidenemethyl)purine] | > 100 µM | > 100 µM | > 100 µM | > 100 µM | 15 µM | 18 µM | – | – | – | – | – | – |
| Nc1ccn(C=C2CC2CO)c(=O)n1 (stereo not drawn) [1 (B = cytosine), Example 12, syn-N^1-(2-Hydroxymethylcyclopropylidenemethyl)cytosine] | > 100 µM | > 100 µM | > 100 µM | > 100 µM | 28 µM | 16 µM | – | – | – | – | – | – |
| Nc1nc2c(ncn2C=C2CC2CO)c(=O)[nH]1 (stereo not drawn) [1 (B = guanine), Example 8, syn-N^9-(2-hydroxymethylcyclopropylidenemethyl)guanine] | > 100 µM | – | > 100 µM | > 100 µM | 2 µM | 1.8 µM | 1.3 µM | No deaths were observed | – | – | – | – |
| COC(=O)[C@H](C)NP(=O)(OCC1CC1=Cn1cnc2c(N)ncnc21)Oc1ccccc1 (stereo partly drawn) [3 (B = adenine), Example 13, Methyl Phenylphosphoro-L-alaninate of syn-N^9-(2-Hydroxymethylcyclopropylidenemethyl)adenine] | – | 2.5 µM | – | – | 0.14 µM | 0.21 µM | < 0.14 µM | – | 0.5 µM | 1.1 µM | 2.5 µM | – |
| Nc1nc(O)c2ncn(COC(CO)CO)c2n1 [ganciclovir, reference compound] | – | – | – | – | – | – | – | – | – | – | – | somewhat more effective |
| Nc1nc(NC2CC2)c2ncn(C=C3CC3CO)c2n1 (stereo not drawn) [syn-2-Amino-6-cyclopropylamino-N^9-(2-hydroxymethylcyclopropylidenemethyl)purine] | > 100 µM | 20 µM | > 100 µM | > 100 µM | 0.4 µM | 1 µM | – | – | – | – | – | – |
| Nc1nc(Cl)c2ncn(C=C3CC3CO)c2n1 (stereo not drawn) [syn-2-amino-6-chloro-N^9-(2-hydroxymethylcyclopropylidenemethyl)purine] | > 100 µM | 40 µM | – | > 100 µM | 5 µM | 0.8 µM | – | – | – | – | – | – |
